Laboratory results published in PMC4416488 (Bioorganic & medicinal chemistry letters, 2015).

Key:
tubulin = assay: Inhibition of tubulin assembly
[1] = test system: A549 human lung cancer cell line; assay: Cytotoxic activity against A549 lung cancer cell line

Structure (SMILES)	Activity as tubulin polymerization/assembly inhibitor (in words) (tubulin)	Cytotoxic activity against A549 cell line (in words) [1]
COC(=O)Nc1nc2ccc(/C=C\c3cc(OC)c(OC)c(OC)c3)cc2[nH]1 [Compound 1]	excellent activities	–
COC(=O)Nc1nc2ccc(C(=O)c3ccc(OC)cc3O)cc2[nH]1 [Compound 2]	excellent activities	no activity
COC(=O)Nc1nc2ccc(C(=O)c3ccc(O)cc3O)cc2[nH]1 [Compound 3]	inactive	no activity
COC(=O)Nc1nc2ccc(C(=O)c3sccc3O)cc2[nH]1 [Compound 4]	excellent activities	–
